Reference: ChEMBL document CHEMBL1240505, “Studies on preparation and photodynamic mechanism of chlorin P6-13,15-N-(cyclohexyl)cycloimide (Chlorin-H) and its antitumor effect for photodynamic therapy in vitro and in vivo” (Bioorg Med Chem, 2010)
Active and inactive are the calls of the source. No cut-off for these calls is given here.

What was measured:
A549 [1] = assay: Antiproliferative activity against human A549 cells assessed as reduction of colony formation at 4 uM irradiated with light dose 0.18 J/cm2 for 14 days before compound challenge measured after 24 hrs using giemsa staining by microscopic analysis; format: functional, cell-based
A549 [2] = assay: Induction of apoptosis in human A549 cells transfected with lentivirus p53-siRNA assessed as reduction of p53 mRNA level at 4 uM after 24 hrs followed by irradiated with light dose 0.18 J/cm2 by MTT assay; format: functional; set-up: scale not given: the % may be the effect or the level left
[3] = Drug uptake in human U87 cell nucleus by using Hoechst 33258 staining; format: ADME, cell-based; details: u-87mg atcc
A549 [4] = assay: Induction of apoptosis in human A549 cells assessed as upregulation of Bcl2 mRNA expression at 4 uM after 24 hrs followed by irradiated with light dose 0.18 J/cm2 by RT-PCR analysis; format: functional, cell-based
A549 [5] = assay: Induction of apoptosis in human A549 cells transfected with lentivirus Smac-siRNA assessed as cell survival at 4 uM after 24 hrs followed by irradiated with light dose 0.18 J/cm2 by MTT assay; format: functional; details: A549, light or radiation study, read-out: Activity
A549 [6] = assay: Induction of apoptosis in human A549 cells assessed as late apoptotic mitochondrial membrane depolarized cells at 4 uM after 24 hrs followed by irradiated with light dose 0.18 J/cm2 using JC-1 staining by flow cytometry; format: functional
A549 [7] = assay: Cell cycle arrest in human A549 cells assessed as accumulation at S phase at 4 uM after 24 hrs by flow cytometry; format: functional
A549 [8] = assay: Antitumor activity against human A549 cells xenografted in nude BALB/C mouse assessed as dark tumor at 8 uM after 24 hrs followed by irradiated with light dose 78 J/cm2 measured after 10 days; format: functional, cell-based
A549 [9] = assay: Induction of apoptosis in human A549 cells assessed as live mitochondrial membrane polarized cells at 4 uM after 24 hrs followed by irradiated with light dose 0.18 J/cm2 using JC-1 staining by flow cytometry; format: functional
A549 [10] = assay: Induction of apoptosis in human A549 cells assessed as late apoptotic cells at 4 uM after 24 hrs using annexin-V FITC/PI double staining by flow cytometry; format: functional
A549 [11] = assay: Cell cycle arrest in human A549 cells assessed as accumulation at G2/M phase at 4 uM after 24 hrs followed by irradiated with light dose 0.18 J/cm2 by flow cytometry; format: functional
A549 [12] = assay: Induction of apoptosis in human A549 cells assessed as apoptotic cells at 4 uM after 24 hrs using annexin-V-PE/7-AAD double staining by flow cytometry; format: functional
SGC-7901 = assay: Cytotoxicity against human SGC7901 cells assessed as cell death at 4 uM after 24 hrs followed by irradiated with light dose 0.18 J/cm2 by MTT assay; format: functional, cell-based
A549 [13] = assay: Induction of apoptosis in human A549 cells assessed as late apoptotic cells at 4 uM after 24 hrs followed by irradiated with light dose 0.18 J/cm2 using annexin-V FITC/PI double staining by flow cytometry; format: functional
A549 [14] = assay: Antitumor activity against human A549 cells xenografted in nude BALB/C mouse assessed as tumor shrinkage at 8 uM after 24 hrs followed by irradiated with light dose 78 J/cm2 measured after 10 days; format: functional, cell-based
A549 [15] = assay: Antitumor activity against human A549 cells xenografted in nude BALB/C mouse assessed as reduction of tumor growth at 8 uM after 20 days; format: functional, cell-based
[16] = Drug uptake in human A549 cell mitochondria by using Hoechst 33258 staining; format: ADME
A549 [17] = assay: Induction of apoptosis in human A549 cells assessed as viable cells at 4 uM after 24 hrs using annexin-V FITC/PI double staining by flow cytometry; format: functional; details: A549, 24 h, read-out: Activity
A549 [18] = assay: Cell cycle arrest in human A549 cells assessed as accumulation at G0/G1 phase at 4 uM after 24 hrs by flow cytometry; format: functional
A549 [19] = assay: Induction of apoptosis in human A549 cells assessed as dying mitochondrial membrane depolarized cells at 4 uM after 24 hrs followed by irradiated with light dose 0.18 J/cm2 using JC-1 staining by flow cytometry; format: functional
A549 [20] = assay: Induction of apoptosis in human A549 cells transfected with lentivirus TNFSF13-siRNA assessed as cell survival at 4 uM after 24 hrs followed by irradiated with light dose 0.18 J/cm2 by MTT assay; format: functional; details: A549, light or radiation study, read-out: Activity
A549 [21] = assay: Induction of apoptosis in human A549 cells assessed as late apoptotic cells at 4 uM after 24 hrs using annexin-V-PE/7-AAD double staining by flow cytometry; format: functional
[22] = Drug uptake in human U87 cell mitochondria by using Hoechst 33258 staining; format: ADME; details: u-87mg atcc
A549 [23] = assay: Induction of apoptosis in human A549 cells assessed as live mitochondrial membrane depolarized cells at 4 uM after 24 hrs followed by irradiated with light dose 0.18 J/cm2 using JC-1 staining by flow cytometry; format: functional
A549 [24] = assay: Induction of apoptosis in human A549 cells transfected with lentivirus Smac-siRNA assessed as reduction of Smac mRNA level at 4 uM after 24 hrs followed by irradiated with light dose 0.18 J/cm2 by MTT assay; format: functional; set-up: scale not given: the % may be the effect or the level left
A549 [25] = assay: Induction of apoptosis in human A549 cells assessed as down regulation of […] mRNA expression at 2 uM after 24 hrs followed by irradiated with light dose 0.18 J/cm2 by RT-PCR analysis; format: functional, cell-based
A549 [26] = assay: Cell cycle arrest in human A549 cells assessed as accumulation at G0/G1 phase at 4 uM after 24 hrs followed by irradiated with light dose 0.18 J/cm2 by flow cytometry; format: functional
HL-60 = assay: Cytotoxicity against human HL60 cells assessed as cell survival at 4 uM after 24 hrs followed by irradiated with light dose 0.18 J/cm2 by MTT assay; format: functional; details: HL-60, light or radiation study, read-out: Activity
A549 [27] = assay: Induction of apoptosis in human A549 cells assessed as apoptotic cells at 4 uM after 24 hrs followed by irradiated with light dose 0.18 J/cm2 using annexin-V-PE/7-AAD double staining by flow cytometry; format: functional
A549 [28] = assay: Induction of apoptosis in human A549 cells assessed as pre-necrotic cells at 4 uM after 24 hrs using annexin-V FITC/PI double staining by flow cytometry; format: functional

Q: With `C=Cc1c(C)c2cc3nc(c4c5[nH]c(cc6nc(cc1[nH]2)C(C)=C6CC)c(C)c5C(=O)N(C1CCCCC1)C4=O)[C@@H](CCC(=O)O)[C@@H]3C` as the compound, how does the Activity (A549 [1]) read?
A: The Activity was “Active”.

Q: And the Activity (A549 [2])?
A: The Activity was 60%.

Q: What about the Drug uptake [3] of the same compound?
A: The Drug uptake was “Active”.

Q: And the Activity (A549 [4])?
A: The Activity was “Active”.

Q: What about the viability at 4 µM (A549 [5]) of the same compound?
A: The viability at 4 µM was 24.5%.

Q: And the Activity (A549 [6])?
A: Its Activity is 91.08%.

Q: And the Activity (A549 [7])?
A: The Activity was 35.44%.

Q: What about the Activity (A549 [8]) of the same compound?
A: Its Activity is “Active”.

Q: What about the Activity (A549 [9]) of the same compound?
A: Its Activity is 0.01%.

Q: And the Activity (A549 [10])?
A: Its Activity is 3.03%.

Q: What about the Activity (A549 [11]) of the same compound?
A: Its Activity is 56.07%.

Q: What about the Activity (A549 [12]) of the same compound?
A: Its Activity is 2.96%.

Q: And the Activity (SGC-7901)?
A: Its Activity is “Active”.

Q: And the Activity (A549 [13])?
A: Its Activity is 23.28%.

Q: What about the Activity (A549 [14]) of the same compound?
A: Its Activity is “Active”.

Q: And the Activity (A549 [15])?
A: Its Activity is “inactive”.

Q: And the Drug uptake [16]?
A: The Drug uptake was “Active”.

Q: What about the viability at 4 µM (A549 [17]) of the same compound?
A: Its viability at 4 µM is 92.3%.

Q: And the Activity (A549 [18])?
A: The Activity was 53.48%.

Q: And the Activity (A549 [19])?
A: Its Activity is 8.28%.

Q: What about the viability at 4 µM (A549 [20]) of the same compound?
A: Its viability at 4 µM is 72.1%.

Q: What about the Activity (A549 [21]) of the same compound?
A: Its Activity is 3.6%.

Q: What about the Drug uptake [22] of the same compound?
A: The Drug uptake was “Active”.

Q: And the Activity (A549 [23])?
A: Its Activity is 0.01%.

Q: And the Activity (A549 [24])?
A: The Activity was 60%.

Q: And the Activity (A549 [25])?
A: The Activity was “Active”.

Q: What about the Activity (A549 [26]) of the same compound?
A: The Activity was 22.37%.

Q: And the viability at 4 µM (HL-60)?
A: Its viability at 4 µM is 78.6%.

Q: What about the Activity (A549 [27]) of the same compound?
A: The Activity was 55.33%.

Q: What about the Activity (A549 [28]) of the same compound?
A: The Activity was 0.24%.
